Test results: patent publication US12448369B2 (Edgewise Therapeutics, Inc., priority 2023, dated 2025)
Read-outs that look alike come from different tables or passages of the source.

Experiments:
[1] = target: T1, Porcine ventricle myofibrils (ventricular myosin ATPase) (Sus scrofa, UniProt P79293); assay: Myofibril ATPase assay, porcine ventricle myofibrils; type: biochemical, porcine (Yucatan minipigs)
T1 construct: Myofibrils from porcine cardiac muscle was isolated from the left ventricle of Yucatan minipigs; tissue Exemplar Genetics; host or cells: left ventricle of Yucatan minipigs, myofibrils prepared in house
T1 sequence (P79293 whole entry): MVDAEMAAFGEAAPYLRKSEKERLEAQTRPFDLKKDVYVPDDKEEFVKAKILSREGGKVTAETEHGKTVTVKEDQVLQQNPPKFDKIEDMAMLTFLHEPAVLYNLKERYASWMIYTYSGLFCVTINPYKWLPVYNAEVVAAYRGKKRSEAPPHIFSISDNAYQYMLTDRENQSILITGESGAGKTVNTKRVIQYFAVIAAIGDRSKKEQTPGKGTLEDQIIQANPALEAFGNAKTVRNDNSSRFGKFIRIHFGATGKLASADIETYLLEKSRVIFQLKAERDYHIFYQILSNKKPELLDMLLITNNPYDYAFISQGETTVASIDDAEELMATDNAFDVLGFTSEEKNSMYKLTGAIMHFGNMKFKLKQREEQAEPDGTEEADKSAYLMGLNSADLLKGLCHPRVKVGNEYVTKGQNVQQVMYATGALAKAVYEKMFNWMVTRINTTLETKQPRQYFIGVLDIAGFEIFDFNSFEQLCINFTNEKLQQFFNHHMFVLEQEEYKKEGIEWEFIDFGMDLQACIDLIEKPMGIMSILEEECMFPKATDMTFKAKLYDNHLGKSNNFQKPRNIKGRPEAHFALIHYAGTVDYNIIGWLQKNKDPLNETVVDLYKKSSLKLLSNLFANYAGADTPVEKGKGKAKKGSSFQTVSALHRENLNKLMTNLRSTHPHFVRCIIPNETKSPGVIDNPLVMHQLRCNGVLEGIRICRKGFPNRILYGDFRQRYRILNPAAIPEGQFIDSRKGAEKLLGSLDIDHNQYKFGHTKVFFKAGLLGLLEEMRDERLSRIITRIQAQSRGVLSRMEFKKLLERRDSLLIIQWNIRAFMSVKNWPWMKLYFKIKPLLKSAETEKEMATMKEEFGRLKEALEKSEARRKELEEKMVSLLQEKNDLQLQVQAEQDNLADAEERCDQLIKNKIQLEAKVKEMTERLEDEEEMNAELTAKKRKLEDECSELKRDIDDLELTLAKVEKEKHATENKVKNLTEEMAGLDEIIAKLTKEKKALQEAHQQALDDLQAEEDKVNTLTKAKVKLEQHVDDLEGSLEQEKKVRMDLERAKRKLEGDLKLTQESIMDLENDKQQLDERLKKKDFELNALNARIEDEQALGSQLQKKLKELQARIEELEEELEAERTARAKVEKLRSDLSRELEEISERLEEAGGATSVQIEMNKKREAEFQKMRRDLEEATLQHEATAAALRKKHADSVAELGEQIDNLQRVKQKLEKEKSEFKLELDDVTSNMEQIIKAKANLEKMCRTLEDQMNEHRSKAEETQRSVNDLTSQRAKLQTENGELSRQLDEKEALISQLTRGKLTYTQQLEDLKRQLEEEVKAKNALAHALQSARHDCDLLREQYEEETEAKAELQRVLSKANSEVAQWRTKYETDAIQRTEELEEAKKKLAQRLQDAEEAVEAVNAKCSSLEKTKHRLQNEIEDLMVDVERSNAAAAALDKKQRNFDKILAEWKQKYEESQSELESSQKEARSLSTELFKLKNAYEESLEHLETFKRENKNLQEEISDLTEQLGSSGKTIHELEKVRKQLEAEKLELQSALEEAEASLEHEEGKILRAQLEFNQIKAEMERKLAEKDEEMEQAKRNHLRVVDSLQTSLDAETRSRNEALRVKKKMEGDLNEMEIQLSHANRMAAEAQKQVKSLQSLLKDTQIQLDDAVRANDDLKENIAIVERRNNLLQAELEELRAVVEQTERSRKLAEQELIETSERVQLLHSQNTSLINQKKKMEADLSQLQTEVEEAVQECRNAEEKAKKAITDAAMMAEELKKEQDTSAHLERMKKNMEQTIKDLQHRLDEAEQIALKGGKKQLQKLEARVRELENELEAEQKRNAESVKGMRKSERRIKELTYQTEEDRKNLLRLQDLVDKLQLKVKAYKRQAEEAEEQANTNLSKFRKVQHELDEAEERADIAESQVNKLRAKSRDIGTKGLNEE
Outline: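 ATPase activity of porcine left-ventricle myofibrils (Yucatan minipig) was followed through PK-LDH coupling as NADH loss at 340 nm, read every 1.5-2 min for 75 min. Slopes were normalised to vehicle wells and fitted to a 4-parameter logistic model. Values are Y75, the concentration giving a 25% drop in activity, or Y125 for activators.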

SD rats = assay: Echocardiography of systolic cardiac performance (HR, FS, LV volumes, SWT) after a single oral dose; type: in vivo; settings: Rattus norvegicus, single dose 10 mg/kg PO, ~2 hrs post-dosing, isoflurane-anesthetized
Description: Example 2. Echocardiogram Data
Experiments were performed to evaluate the in vivo ability of the compounds of the disclosure to modulate systolic cardiac performance. Non-invasively echocardiography was used to assess cardiac indicators in isoflurane-anesthetized SD rats. A set of conscious rats were treated with either vehicle control (0 mg/kg PO; n=78) or a single dose of a test compound (10 mg/kg PO, n=2 to 6/compound) via oral gavage. Cardiac function/geometry were recorded at two separate time-points/days: once prior to dosing (e.g., at baseline, day −2) and at ˜2 hrs post-dosing (day 0). In these experiments, heart rate (HR), echocardiography-derived indices of left-ventricular systolic performance, as well as dimensions/volumes were measured using a high-frequency transducer and parasternal long-axis transthoracic views (Vevo3100, VisualSonic). LV fractional shortening (FS), an index of systolic function, was defined as the end-diastole normalized change in internal dimensions divided by the difference in diameter (LVid) of the left ventricle between end-systole (LVids) and end-diastole (LVidd) (e.g., FS=100·[LVidd−LVids]/LVidd). LV volumes were derived using the Teichholz formula (LVV=[7·LVid^3]/[2.4+LVid]). In addition, a systolic wall-thickening index (SWT) was also evaluated. SWT is defined as the relative ratio (end-diastole normalized) of left-ventricular (anterior and posterior) wall-thickness change during systole; e.g., SWT={[(anterior LV wall thickness in systole−anterior LV wall thickness in diastole)]+[(posterior LV wall thickness in systole−posterior LV wall thickness in diastole)]}/{2*diastolic thickness}. In all cases, blood samples were taken (via either tail-vein micro-sampling or cardiac-puncture) at the time of each echocardiographic examination in order to establish pharmacokinetic (PK)/pharmacodynamics (PD) relationships.

[2] = test system: Rabbit Psoas myofibrils (skeletal myosin ATPase); assay: Myofibril ATPase assay, rabbit psoas (skeletal) myofibrils; type: biochemical
Outline: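 Readout: A340 decline from NADH oxidation, PK/LDH-coupled to ADP release; kinetic reads over 75 min. Buffer: pCa (PIPES, CaCl2, EGTA), pH 7.0. Linear-regression slopes vs vehicle, 4PL fit; reported as concentration giving 75% (Y75) or 125% (Y125) of vehicle activity.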

[3] = test system: Porcine atria myofibrils (atrial myosin ATPase); assay: Myofibril ATPase assay, porcine atria myofibrils; type: biochemical
Outline: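 Coupled PK-LDH readout, NADH loss at 340 nm, kinetic 75 min. Porcine atria myofibrils, pCa buffer (PIPES/CaCl2/EGTA, pH 7.0). Slopes (mAU/min) normalized to vehicle = 100%, 4-parameter fit; Y75 or Y125 reported.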

[4] = Y75 value (no ‡ mark), porcine ventricle myofibrils
[5] = EDV change vs vehicle, read-out: EDV % vs. VEH
[6] = LV fractional shortening change vs vehicle, read-out: FS % vs. VEH
[7] = SWT change vs vehicle, read-out: SWT % vs. VEH
[8] = heart rate change vs vehicle, read-out: HR % vs. VEH
[9] = Y75 value (no ‡ mark), rabbit psoas myofibrils
[10] = Y75 value (no ‡ mark), porcine atria myofibrils
[11] = porcine ventricle myofibrils, Y75 value
[12] = rabbit psoas myofibrils, Y75 value
[13] = porcine atria myofibrils, Y75 value (75% activity relative to no compound)

Row | SMILES | Ventricular EC25 [1, 4] | change in vivo at 10 mg/kg (SD rats; [5]) | change in vivo at 10 mg/kg (SD rats; [6]) | change in vivo at 10 mg/kg (SD rats; [7]) | change in vivo at 10 mg/kg (SD rats; [8]) | Skeletal EC25 [2, 9] | Atrial EC25 [3, 10] | Ventricular EC25 [1, 11] | Skeletal EC25 [2, 12] | Atrial EC25 [3, 13] | Ventricular EC25 ([1]; Y75 value: concentration required to reduce myosin ATP-ase activity by 25%, Porcine Ventricle Prep pCa 25 GEOM_MEAN) | Skeletal EC25 ([2]; Y75 value: concentration required to reduce myosin ATP-ase activity by 25%, Rabbit Psoas Prep pCa 25 GEOM_MEAN) | Atrial EC25 ([3]; Y75 value: concentration required to reduce myosin ATP-ase activity by 25%, Porcine Atria Prep pCa 25 GEOM_MEAN) | Skeletal EC25 ([2]; ‡ Y125 value, not a Y75 value (125% activity relative to no compound), rabbit psoas myofibrils)
1 | Cc1c(CC(=O)N[C@@H](C)c2ncc(C#N)cc2F)c(=O)[nH]c2ccc(F)c(F)c12 [compound 42] | 40 nM | 1 to 10% | 21 to 40% | ≥ 21% | 0% | 0.01 µM | 80 nM |  |  |  |  |  |  | 
2 | Cc1c(CC(=O)N[C@H](C)c2ncc(C#N)cn2)c(=O)[nH]c2ccc(F)c(F)c12 [compound 1123, (R)—N-(1-(5-cyanopyrimidin-2-yl)ethyl)-2-(5,6-difluoro-4-methyl-2-oxo-1,2-dihydroquinolin-3-yl)acetamide] | 1370 nM | 21 to 40% | 21 to 40% | 41 to 60% | 1 to 10% | 0.58 µM | 480 nM |  |  |  |  |  |  | 
3 | Cc1c(CC(=O)N[C@H](C)c2ncc(C#N)cc2F)c(=O)[nH]c2ccc(F)cc12 [compound 1106] | 490 nM | 1 to 10% | 21 to 40% | 21 to 40% | 1 to 10% | 0.37 µM | 540 nM |  |  |  |  |  |  | 
4 | Cc1c(CC(=O)N[C@@H](C)c2ccc(F)cc2F)c(=O)[nH]c2ccnc(C#N)c12 [compound 355, 2-(5-cyano-4-methyl-2-oxo-1H-1,6-naphthyridin-3-yl)-N-[(1S)-1-(2,4-difluorophenyl)ethyl]acetamide] |  | 1 to 10% | 11 to 20% | 1 to 10% | 1 to 10% |  |  | 140 nM | 0.01 µM | 70 nM |  |  |  | 
5 | C[C@H](NC(=O)Cc1cc2c(F)c(F)ccc2[nH]c1=O)c1ncc(C#N)cc1F [compound 36] | 50 nM | 1 to 10% | 41 to 60% | 21 to 40% | 11 to 20% | 0.01 µM | 20 nM |  |  |  |  |  |  | 
6 | Cc1c(CC(=O)N[C@H](C)c2ncc(C#N)cc2F)c(=O)[nH]c2ccc(F)c(C3CC3)c12 [compound 27] | 240 nM | 11 to 20% | 11 to 20% | ≥ 21% | 1 to 20% | 0.14 µM | 230 nM |  |  |  |  |  |  | 
7 | C[C@@H](NC(=O)Cc1cc2c(F)c(F)ccc2[nH]c1=O)c1ncc(C#N)cc1F [compound 35] | 150 nM | 11 to 20% | 1 to 20% | 0% | 1 to 10% | 0.09 µM | 80 nM |  |  |  |  |  |  | 
8 | Cc1c(CC(=O)N[C@H](C)c2ncc(C#N)cc2F)c(=O)[nH]c2ccc(F)c(F)c12 [compound 41] | 450 nM | 1 to 20% | 1 to 20% | ≥ 21% | 1 to 20% | 0.07 µM | 130 nM |  |  |  |  |  |  | 
9 | Cc1c(CC(=O)N[C@@H](C)c2ccc(F)cc2F)c(=O)[nH]c2ccc(F)c(C#N)c12 [compound 83] | 100 nM | 1 to 20% | 11 to 20% | 11 to 20% | 1 to 10% | 0.01 µM | 40 nM |  |  |  |  |  |  | 
10 | Cc1c(CC(=O)N[C@@H](C)c2ncc(C#N)cn2)c(=O)[nH]c2ccc(F)c(F)c12 [compound 1124, (S)—N-(1-(5-cyanopyrimidin-2-yl)ethyl)-2-(5,6-difluoro-4-methyl-2-oxo-1,2-dihydroquinolin-3-yl)acetamide] | 340 nM | 1 to 10% | 21 to 40% | 1 to 20% | 1 to 10% | 0.14 µM | 70 nM |  |  |  |  |  |  | 
11 | Cc1c(CC(=O)N[C@@H](C)c2ccc(F)cc2F)c(=O)[nH]c2ccc(Br)nc12 [compound 357] |  |  |  |  |  |  |  | 310 nM | 0.06 µM | 60 nM |  |  |  | 
12 | Cc1c(C(F)(F)C(=O)N[C@@H](C)c2nc(C#N)cs2)c(=O)[nH]c2ccc(F)cc12 (single isomer, unassigned) [Compound 4010] |  |  |  |  |  |  |  |  |  |  | 19760 nM | 2.38 µM | 740 nM | 
13 | Cc1c(CC(=O)N[C@H](CO)c2ccc(F)cc2F)c(=O)[nH]c2ccnc(OC3CC3)c12 [compound 199] |  |  |  |  |  |  |  | 67500 nM | 13.03 µM | 100000 nM |  |  |  | 
14 | O=C(Cc1cc2c(F)c(F)ccc2[nH]c1=O)N[C@H]1COc2ncccc21 (single isomer, unassigned) [compound 64] | 100000 nM |  |  |  |  | 83.26 µM | 100000 nM |  |  |  |  |  |  | 
15 | Cc1c(CC(=O)N[C@H]2COc3cccnc32)c(=O)[nH]c2ccnc(C#N)c12 (single isomer, unassigned) [compound 213] |  |  |  |  |  |  |  | 100000 nM | 7.67 µM | 100000 nM |  |  |  | 
16 | C[C@H](NC(=O)Cc1c(C#N)c2cc(F)ccc2[nH]c1=O)c1ncc(C#N)cc1F [compound 1095] | 420 nM |  |  |  |  | 0.06 µM | 180 nM |  |  |  |  |  |  | 
17 | C[C@@H](NC(=O)C1(c2cc3cc(F)ccc3[nH]c2=O)CC1)c1cccc(C#N)n1 (single isomer, unassigned) [compound 2534] | 100000 nM |  |  |  |  |  | 15930 nM |  |  |  |  |  |  | 37.90‡ μM
18 | COc1ccc2[nH]c(=O)c(CC(=O)N[C@@H](C)c3ccc(F)cc3F)c(C)c2n1 [compound 409] |  |  |  |  |  |  |  | 590 nM | 0.03 µM | 40 nM |  |  |  | 
